Experimental data: patent US20160355530A1, “HEPATITIS C INHIBITORS AND USES THEREOF” (AbbVie Inc., priority 2010, published 2016)
Where two headings read alike, the source gives them in different places.

Tests used:
[1] = molecular target: T1, HCV NS5B polymerase 1a-H77 (Hepatitis C virus genotype 1a, UniProt P27958); assay: biochemical; set-up: species or system HCV genotype 1a; conditions: enzyme, strain 1a H77; read-out: HCV Polymerase Strain 1a H77 IC50
T1 construct: six-histidine tag; made in house; host or cells: E. coli
T1 sequence (P27958 2421-2990): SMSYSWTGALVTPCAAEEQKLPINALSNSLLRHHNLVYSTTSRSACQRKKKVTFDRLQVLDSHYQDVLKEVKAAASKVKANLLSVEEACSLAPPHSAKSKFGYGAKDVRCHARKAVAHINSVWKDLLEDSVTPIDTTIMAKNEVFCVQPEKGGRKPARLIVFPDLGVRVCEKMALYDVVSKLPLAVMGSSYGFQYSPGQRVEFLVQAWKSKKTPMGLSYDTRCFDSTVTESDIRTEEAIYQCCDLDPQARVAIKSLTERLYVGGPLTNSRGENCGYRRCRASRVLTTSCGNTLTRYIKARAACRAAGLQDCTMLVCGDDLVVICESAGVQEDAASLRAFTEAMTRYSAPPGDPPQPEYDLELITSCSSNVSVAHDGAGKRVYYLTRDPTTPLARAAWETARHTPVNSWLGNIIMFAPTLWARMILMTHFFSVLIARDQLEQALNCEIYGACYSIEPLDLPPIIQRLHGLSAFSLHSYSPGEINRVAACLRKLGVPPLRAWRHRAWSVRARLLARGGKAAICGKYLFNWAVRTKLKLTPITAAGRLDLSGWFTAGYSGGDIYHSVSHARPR
Outline: (§1)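 Incorporation of [3H]UTP (0.284 μM), alongside 20 μM each CTP and ATP, into RNA copied from a 5 nM 2.1 kb genotype 1b negative-strand template was measured after 3 h at 30° C using purified His-tagged NS5B truncated at residue 570. Product was spermine-precipitated, filtered and scintillation-counted; nonlinear regression gave IC50.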

[2] = molecular target: T2, HCV NS5B polymerase 1a-H77-C316Y (Hepatitis C virus genotype 1a, UniProt P27958, C2736Y); assay: biochemical; set-up: species or system HCV genotype 1a
T2 construct: six-histidine tag; made in house; host or cells: E. coli
T2 sequence (P27958 2421-2990 C2736Y): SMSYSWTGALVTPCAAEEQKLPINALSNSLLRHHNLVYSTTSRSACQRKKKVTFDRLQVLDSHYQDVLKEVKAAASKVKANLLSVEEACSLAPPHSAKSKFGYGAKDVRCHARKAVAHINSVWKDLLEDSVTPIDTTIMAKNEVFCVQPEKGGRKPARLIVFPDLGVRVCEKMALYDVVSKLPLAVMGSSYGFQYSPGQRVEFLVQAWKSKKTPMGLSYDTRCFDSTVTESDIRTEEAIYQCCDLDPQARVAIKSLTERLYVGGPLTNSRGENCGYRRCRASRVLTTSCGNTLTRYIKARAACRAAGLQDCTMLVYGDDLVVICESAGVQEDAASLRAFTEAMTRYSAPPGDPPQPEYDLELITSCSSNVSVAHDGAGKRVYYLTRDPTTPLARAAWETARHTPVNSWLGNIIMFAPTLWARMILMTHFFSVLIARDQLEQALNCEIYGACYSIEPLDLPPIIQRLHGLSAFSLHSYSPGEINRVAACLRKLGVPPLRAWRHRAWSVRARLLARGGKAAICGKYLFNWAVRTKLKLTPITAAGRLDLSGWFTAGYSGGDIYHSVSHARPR
Outline: as §1

[3] = tested on: HCV NS5B polymerase 1a-H77-C316Y; assay: biochemical; set-up: species or system HCV genotype 1a; conditions: ratio of enzyme IC50s, 1a H77-C316Y / 1a H77
Outline: as §1

[4] = molecular target: T3, HCV NS5B polymerase 1b BK strain (Hepatitis C virus genotype 1b, UniProt P26663); assay: HCV NS5B polymerase enzymatic inhibition assay, strain 1b BK; assay type: biochemical; conditions: enzyme, strain 1b BK; read-out: HCV Polymerase Strain 1b BK IC50
T3 construct: six-histidine tag; made in house; host or cells: E. coli
T3 sequence (P26663 2420-2989): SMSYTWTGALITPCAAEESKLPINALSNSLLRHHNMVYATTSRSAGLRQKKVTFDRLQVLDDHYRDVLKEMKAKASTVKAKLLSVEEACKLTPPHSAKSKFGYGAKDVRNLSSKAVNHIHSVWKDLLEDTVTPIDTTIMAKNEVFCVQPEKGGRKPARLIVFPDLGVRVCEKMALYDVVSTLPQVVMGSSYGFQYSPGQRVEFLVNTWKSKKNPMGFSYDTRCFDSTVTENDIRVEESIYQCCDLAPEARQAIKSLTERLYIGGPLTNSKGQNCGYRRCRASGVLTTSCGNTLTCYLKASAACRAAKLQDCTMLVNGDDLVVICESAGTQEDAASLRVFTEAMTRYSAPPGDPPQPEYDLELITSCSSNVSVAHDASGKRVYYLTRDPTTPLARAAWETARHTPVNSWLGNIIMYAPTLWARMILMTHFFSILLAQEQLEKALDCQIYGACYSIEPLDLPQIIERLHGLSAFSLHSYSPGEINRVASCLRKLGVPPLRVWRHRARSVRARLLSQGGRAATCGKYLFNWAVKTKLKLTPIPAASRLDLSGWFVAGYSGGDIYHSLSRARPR
Outline: as §1

[5] = tested on: HCV 1a-H77 subgenomic replicon; assay: microbe, parasite or virus in culture; assay type: cell-based, HCV genotype 1a; conditions: Hepatitis C virus, stable replicon
[6] = tested on: HCV 1b-BB7 subgenomic replicon; assay: microbe, parasite or virus in culture; assay type: cell-based, HCV genotype 1b; conditions: Hepatitis C virus, stable replicon
[7] = tested on: chimeric replicon with 2a-J6CF-derived NS5B; assay: microbe, parasite or virus in culture; assay type: cell-based, HCV genotype 2a; conditions: Hepatitis C virus, read-out: 2a chimera 5% FBS EC50
[8] = tested on: chimeric replicon with genotype 2b NS5B; assay: microbe, parasite or virus in culture; assay type: cell-based, HCV genotype 2b; conditions: Hepatitis C virus, read-out: 2b chimera 5% FBS EC50
[9] = tested on: chimeric replicon with genotype 3a NS5B; assay: microbe, parasite or virus in culture; assay type: cell-based, HCV genotype 3a; conditions: Hepatitis C virus, read-out: 3a chimera 5% FBS EC50
[10] = tested on: chimeric replicon with genotype 4a NS5B; assay: microbe, parasite or virus in culture; assay type: cell-based, HCV genotype 4a; conditions: Hepatitis C virus, read-out: 4a chimera 5% FBS EC50
[11] = tested on: HCV 1a-H77 transient subgenomic replicon in Huh-7 derived cell line; assay: microbe, parasite or virus in culture; assay type: cell-based, HCV genotype 1a; conditions: Hepatitis C virus, Huh-7; transient replicon, 5% FBS; read-out: Transient Replicon 1a H77 5% FBS EC50
Protocol: In addition to the stable replicon inhibition assays, transient replicon assays were performed. Transient replicons are identical to the 1a-H77 and 1a-H77-C316Y constructs, except they lack the Neo gene, making it impossible to establish stable cell lines. A T7 Megascript RNA synthesis kit (Ambion) was used to transcribe the HCV subgenomic RNA. The HCV RNA was then precipitated with lithium chloride according to manufacturer's instructions. The HCV subgenomic replicon RNA was transfected via electroporation into a Huh-7 derived cell line as described (Middleton T, et al. J. Virological Methods 2007; 145(2): 137-145). Transfected cells were diluted and plated in 96 well plates at 5×10^3 cells per well in DMEM. Four hours post-transfection, the wells from one plate were harvested for luciferase measurement. This plate provides a measure of the amount of translatable input RNA, and therefore transfection efficiency. To the wells of the remaining plates, a 3-fold dilution series of test compounds was added in DMSO (0.5% DMSO final concentration), and plates were incubated at 37° C., 5% CO2 in a humidified incubator for 4 days. After this period, the media was removed and the plates were washed with 100 μL phosphate-buffered saline per well. For the luciferase assay, 30 μL of Passive Lysis buffer (Promega) was added to each well, and then the plates were incubated for 15 minutes with rocking to lyse the cells. Luciferin solution (100 μL, Promega) was added to each well, and luciferase activity was measured with a Victor II luminometer (Perkin-Elmer). The EC50 values were calculated using GraphPad Prism 4 software.

[12] = 5% FBS, absence of human plasma, read-out: Stable Replicon 1a H77 5% FBS EC50
[13] = strain 1a H77, 5% FBS + 40% human plasma, read-out: 1a H77 5% FBS + 40% Human Plasma EC50
[14] = strain 1a H77, 5% FBS, no human plasma, read-out: 1a H77 5% FBS EC50
[15] = strain 1a H77, 5% FBS, read-out: 1a H77 5% FBS EC50
[16] = strain 1b BB7, 5% FBS + 40% human plasma, read-out: 1b BB7 5% FBS + 40% Human Plasma EC50
[17] = strain 1b BB7, 5% FBS, no human plasma, read-out: 1b BB7 5% FBS EC50
[18] = strain 1b BB7, 5% FBS, read-out: 1b BB7 5% FBS EC50

SMILES: CS(=O)(=O)Nc1cc2oc(-c3ccc(F)cc3)c(-c3ncc[nH]3)c2cc1C1CC1 [Example 1, N-[5-cyclopropyl-2-(4-fluorophenyl)-3-(1H-imidazol-2-yl)-1-benzofuran-6-yl]methanesulfonamide]
- IC50 [1]: 0.0059 µM
- IC50 [2]: 1.8 µM
- C316Y/1a Fold Resistance [3]: 304 fold
- IC50 [4]: 0.087 µM
- EC50 [5, 12]: 0.207 µM
- EC50 [5, 13]: 4.71 µM
- EC50 [5, 14]: 0.207 µM
- EC50 [5, 15]: 0.207 µM
- EC50 [6, 16]: 0.281 µM
- EC50 [6, 17]: 0.0182 µM
- EC50 [6, 18]: 0.0182 µM
- EC50 [7]: 0.223 µM
- EC50 [8]: 0.219 µM
- EC50 [9]: 0.013 µM
- EC50 [10]: 0.242 µM
- EC50 [11]: 0.192 µM

SMILES: CCCN(c1cc2oc(-c3ccc(F)cc3)c(-c3ncc[nH]3)c2cc1C1CC1)S(C)(=O)=O [Example 64, N-[5-cyclopropyl-2-(4-fluorophenyl)-3-(1H-imidazol-2-yl)-1-benzofuran-6-yl]-N-propylmethanesulfonamide]
- IC50 [1]: 0.0053 µM
- IC50 [2]: 0.18 µM
- C316Y/1a Fold Resistance [3]: 34 fold
- IC50 [4]: 0.029 µM
- EC50 [5, 12]: 0.0243 µM
- EC50 [5, 13]: 0.267 µM
- EC50 [5, 14]: 0.0243 µM
- EC50 [5, 15]: 0.0243 µM
- EC50 [6, 16]: 0.11 µM
- EC50 [6, 17]: 0.012 µM
- EC50 [6, 18]: 0.012 µM
- EC50 [7]: 0.0579 µM
- EC50 [8]: 0.0674 µM
- EC50 [9]: 0.0016 µM
- EC50 [10]: 0.125 µM
- EC50 [11]: 0.0202 µM

SMILES: CS(=O)(=O)N(CCC/C(N)=N/O)c1cc2oc(-c3ccc(F)cc3)c(-c3ncc[nH]3)c2cc1C1CC1 [Example 176, (1Z)-4-{[5-cyclopropyl-2-(4-fluorophenyl)-3-(1H-imidazol-2-yl)-1-benzofuran-6-yl](methylsulfonyl)amino}-N′-hydroxybutanimidamide]
- IC50 [1]: 0.005 µM
- IC50 [2]: 0.134 µM
- C316Y/1a Fold Resistance [3]: 27 fold
- IC50 [4]: 0.033 µM
- EC50 [5, 12]: 0.0365 µM
- EC50 [5, 13]: 0.133 µM
- EC50 [5, 14]: 0.0365 µM
- EC50 [5, 15]: 0.0365 µM
- EC50 [6, 16]: 0.08 µM
- EC50 [6, 17]: 0.02 µM
- EC50 [6, 18]: 0.02 µM
- EC50 [7]: 0.146 µM
- EC50 [8]: 0.155 µM
- EC50 [9]: 0.012 µM
- EC50 [10]: 0.159 µM

SMILES: CS(=O)(=O)N(CCCc1noc(=S)[nH]1)c1cc2oc(-c3ccc(F)cc3)c(-c3ncc[nH]3)c2cc1C1CC1 [Example 177, N-[5-cyclopropyl-2-(4-fluorophenyl)-3-(1H-imidazol-2-yl)-1-benzofuran-6-yl]-N-[3-(5-thioxo-4,5-dihydro-1,2,4-oxadiazol-3-yl)propyl]methanesulfonamide]
- IC50 [1]: 0.004 µM
- IC50 [2]: 0.038 µM
- C316Y/1a Fold Resistance [3]: 10 fold
- IC50 [4]: 0.036 µM
- EC50 [5, 12]: 0.032 µM
- EC50 [5, 13]: 0.52 µM
- EC50 [5, 14]: 0.032 µM
- EC50 [5, 15]: 0.032 µM
- EC50 [6, 16]: 0.461 µM
- EC50 [6, 17]: 0.023 µM
- EC50 [6, 18]: 0.023 µM
- EC50 [7]: 0.427 µM
- EC50 [8]: 0.606 µM
- EC50 [9]: 0.03 µM
- EC50 [10]: 0.401 µM

SMILES: CS(=O)(=O)N(CCCc1nnn[nH]1)c1cc2oc(-c3ccc(F)cc3)c(C3=NOCCN3)c2cc1C1CC1 [Example 180, N-[5-cyclopropyl-3-(5,6-dihydro-4H-1,2,4-oxadiazin-3-yl)-2-(4-fluorophenyl)-1-benzofuran-6-yl]-N-[3-(1H-tetrazol-5-yl)propyl]methanesulfonamide]
- IC50 [1]: 0.006 µM
- IC50 [2]: 0.034 µM
- C316Y/1a Fold Resistance [3]: 6 fold
- IC50 [4]: 0.032 µM
- EC50 [5, 12]: 1 µM
- EC50 [5, 13]: 10 µM
- EC50 [5, 14]: 1 µM
- EC50 [5, 15]: 1 µM
- EC50 [6, 16]: 10 µM
- EC50 [6, 17]: 1 µM
- EC50 [6, 18]: 1 µM
- EC50 [7]: 1 µM
- EC50 [8]: 1 µM
- EC50 [9]: 1 µM
- EC50 [10]: > 1 µM

SMILES: CS(=O)(=O)N(CCC/C(N)=N/O)c1cc2oc(-c3ccc(F)cc3)c(C3=NOCCN3)c2cc1C1CC1 [Example 181, (1Z)-4-{[5-cyclopropyl-3-(5,6-dihydro-4H-1,2,4-oxadiazin-3-yl)-2-(4-fluorophenyl)-1-benzofuran-6-yl](methylsulfonyl)amino}-N′-hydroxybutanimidamide]
- IC50 [1]: 0.01 µM
- IC50 [2]: 0.103 µM
- C316Y/1a Fold Resistance [3]: 10 fold
- IC50 [4]: 0.056 µM
- EC50 [5, 12]: 0.0557 µM
- EC50 [5, 13]: 0.611 µM
- EC50 [5, 14]: 0.0557 µM
- EC50 [5, 15]: 0.0557 µM
- EC50 [6, 16]: 0.702 µM
- EC50 [6, 17]: 0.046 µM
- EC50 [6, 18]: 0.046 µM
- EC50 [7]: 0.785 µM
- EC50 [8]: 0.548 µM
- EC50 [9]: 0.108 µM
- EC50 [10]: 0.594 µM

SMILES: CS(=O)(=O)N(CCCc1noc(=O)[nH]1)c1cc2oc(-c3ccc(F)cc3)c(C3=NOCCN3)c2cc1C1CC1 [Example 182, N-[5-cyclopropyl-3-(5,6-dihydro-4H-1,2,4-oxadiazin-3-yl)-2-(4-fluorophenyl)-1-benzofuran-6-yl]-N-[3-(5-oxo-4,5-dihydro-1,2,4-oxadiazol-3-yl)propyl]methanesulfonamide]
- IC50 [1]: 0.007 µM
- IC50 [2]: 0.026 µM
- C316Y/1a Fold Resistance [3]: 4 fold
- IC50 [4]: 0.044 µM
- EC50 [5, 12]: 0.356 µM
- EC50 [5, 13]: 4.23 µM
- EC50 [5, 14]: 0.356 µM
- EC50 [5, 15]: 0.356 µM
- EC50 [6, 16]: 5.25 µM
- EC50 [6, 17]: 0.31 µM
- EC50 [6, 18]: 0.31 µM
- EC50 [7]: 1 µM
- EC50 [8]: 1 µM
- EC50 [9]: 0.661 µM
- EC50 [10]: > 1 µM

SMILES: CS(=O)(=O)N(CCCc1noc(=S)[nH]1)c1cc2oc(-c3ccc(F)cc3)c(C3=NOCCN3)c2cc1C1CC1 [Example 183, N-[5-cyclopropyl-3-(5,6-dihydro-4H-1,2,4-oxadiazin-3-yl)-2-(4-fluorophenyl)-1-benzofuran-6-yl]-N-[3-(5-thioxo-4,5-dihydro-1,2,4-oxadiazol-3-yl)propyl]methanesulfonamide]
- IC50 [1]: 0.006 µM
- IC50 [2]: 0.022 µM
- C316Y/1a Fold Resistance [3]: 4 fold
- IC50 [4]: 0.039 µM
- EC50 [5, 12]: 0.104 µM
- EC50 [5, 13]: 2.06 µM
- EC50 [5, 14]: 0.104 µM
- EC50 [5, 15]: 0.104 µM
- EC50 [6, 16]: 2.2 µM
- EC50 [6, 17]: 0.088 µM
- EC50 [6, 18]: 0.088 µM
- EC50 [7]: 1 µM
- EC50 [8]: 1 µM
- EC50 [9]: 0.306 µM
- EC50 [10]: > 1 µM

SMILES: CS(=O)(=O)N(CCCc1nsc(=O)[nH]1)c1cc2oc(-c3ccc(F)cc3)c(C3=NOCCN3)c2cc1C1CC1 [Example 184, N-[5-cyclopropyl-3-(5,6-dihydro-4H-1,2,4-oxadiazin-3-yl)-2-(4-fluorophenyl)-1-benzofuran-6-yl]-N-[3-(5-oxo-4,5-dihydro-1,2,4-thiadiazol-3-yl)propyl]methanesulfonamide]
- IC50 [1]: 0.017 µM
- IC50 [2]: 0.599 µM
- C316Y/1a Fold Resistance [3]: 35 fold
- IC50 [4]: 0.156 µM
- EC50 [5, 12]: 0.0697 µM
- EC50 [5, 13]: 1.87 µM
- EC50 [5, 14]: 0.0697 µM
- EC50 [5, 15]: 0.0697 µM
- EC50 [6, 16]: 1.09 µM
- EC50 [6, 17]: 0.028 µM
- EC50 [6, 18]: 0.028 µM
- EC50 [7]: 0.539 µM
- EC50 [8]: 0.353 µM
- EC50 [9]: 0.084 µM
- EC50 [10]: 0.507 µM
